Test results: ChEMBL document CHEMBL1201862, “PubChem BioAssay data set” (2004)
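Briefly, cells in 96-well plates were exposed to five compound concentrations for 48 h, and endpoints were estimated by linear interpolation. Abbreviation: GI50, concentration required for 50% inhibition of growth.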 The source made the active and inactive calls. Cut-off read from the data, not from the text of the source: active = GI50 up to about 1.1 µM and inactive = higher. Where a SMILES comes first, the peptide text is derived from it. [ ]: non-standard residue; d: D form. The star is where a group is joined. NMeAc5c = CNC1(C(=O)O)CCCC1; Boc = CC(C)(C)OC(=O)*; OBn = c1ccc(CO*)cc1

Experiments:
Assay in all cases: NCI anticancer screen, dose series, 48 h
[1] = system: ACHN
[2] = system: BT-549
[3] = system: CAKI-1
[4] = system: HCT-15
[5] = system: HOP-62
[6] = system: HT-29
[7] = system: IGROV-1
[8] = system: KM12
[9] = system: OVCAR-3
[10] = system: OVCAR-5
[11] = system: SF-295
[12] = system: SF-539
[13] = system: SK-MEL-2
[14] = system: SK-OV-3
[15] = system: SN12C
[16] = system: SNB-19
[17] = system: T47D
[18] = system: LOX IMVI
[19] = system: RPMI-8226

SMILES | GI50 [1] | GI50 [2] | GI50 [3] | GI50 [4] [µM] | GI50 [5] | GI50 [6] | GI50 [7] | GI50 [8] | GI50 [9] | GI50 [10] | GI50 [11] | GI50 [12] | GI50 [13] | GI50 [14] | GI50 [15] | GI50 [16] | GI50 [17] | GI50 [18] | GI50 [19]
O=c1[nH]cnc2cccc(Cl)c12 | > 100 µM (inactive) | > 100 µM (inactive) | > 100 µM (inactive) | > 100 | > 100 µM (inactive) | > 100 µM (inactive) | > 100 µM (inactive) | > 100 µM (inactive) | > 100 µM (inactive) | > 100 µM (inactive) | > 100 µM (inactive) | > 100 µM (inactive) | > 100 µM (inactive) | > 100 µM (inactive) | > 100 µM (inactive) | > 100 µM (inactive) | > 100 µM (inactive) |  | 
Cn1c(=O)c2c(nc3n(Cc4ccccc4)c(=O)c(NCCBr)cn23)n(C)c1=O | 15.4 µM (inactive) | 28.4 µM (inactive) | 18.5 µM (inactive) | 34.8 | 18.8 µM (inactive) | 41.2 µM (inactive) | 33 µM (inactive) | 63.5 µM (inactive) | 19.1 µM (inactive) | 28.4 µM (inactive) | 21.9 µM (inactive) |  | 17.2 µM (inactive) | 25.3 µM (inactive) | 32.6 µM (inactive) | 30.4 µM (inactive) | 21.1 µM (inactive) | 28.4 µM (inactive) | 23.8 µM (inactive)
Cc1ccsc1/C=N/Nc1ccccn1 | 74.6 µM (inactive) | > 100 µM (inactive) | > 100 µM (inactive) | 60.1 | > 100 µM (inactive) | 32.8 µM (inactive) | 16.9 µM (inactive) | 35.6 µM (inactive) | 47.5 µM (inactive) | > 100 µM (inactive) | > 100 µM (inactive) |  | 34.3 µM (inactive) | > 100 µM (inactive) | > 100 µM (inactive) | > 100 µM (inactive) | 60.7 µM (inactive) | 37.2 µM (inactive) | 19.3 µM (inactive)
CN(/N=C/c1cccs1)c1ccc(Cl)cc1[N+](=O)[O-] | 40 µM (inactive) | 40.6 µM (inactive) | 63.1 µM (inactive) | 10.6 | 40.9 µM (inactive) | 25.9 µM (inactive) | > 100 µM (inactive) | 11.4 µM (inactive) | 39.8 µM (inactive) |  | 37.7 µM (inactive) | 25 µM (inactive) |  | 40.8 µM (inactive) | 24.5 µM (inactive) | 56.2 µM (inactive) | 41.6 µM (inactive) |  | 22 µM (inactive)
Cc1ccc2c(=O)c(-c3nnsn3)c[nH]c2n1 | > 100 µM (inactive) | > 100 µM (inactive) | > 100 µM (inactive) | > 100 | > 100 µM (inactive) | > 100 µM (inactive) | > 100 µM (inactive) | > 100 µM (inactive) | > 100 µM (inactive) | > 100 µM (inactive) | > 100 µM (inactive) |  | > 100 µM (inactive) |  | > 100 µM (inactive) | > 100 µM (inactive) | > 100 µM (inactive) | > 100 µM (inactive) | > 100 µM (inactive)
N=c1nc(N)nc(N)n1-c1ccc(S(N)(=O)=O)cc1 | > 100 µM (inactive) | > 100 µM (inactive) | > 100 µM (inactive) | > 100 | > 100 µM (inactive) | > 100 µM (inactive) | > 100 µM (inactive) | > 100 µM (inactive) | > 100 µM (inactive) | > 100 µM (inactive) | > 100 µM (inactive) |  | > 100 µM (inactive) |  | > 100 µM (inactive) | > 100 µM (inactive) | > 100 µM (inactive) | > 100 µM (inactive) | 
Cc1n[n+](CC(=O)c2ccccc2)c2sc(N)nn12 | > 100 µM (inactive) | > 100 µM (inactive) | > 100 µM (inactive) | > 100 | > 100 µM (inactive) | > 100 µM (inactive) | > 100 µM (inactive) | > 100 µM (inactive) | > 100 µM (inactive) | > 100 µM (inactive) | > 100 µM (inactive) |  | > 100 µM (inactive) | > 100 µM (inactive) | > 100 µM (inactive) | > 100 µM (inactive) | > 100 µM (inactive) | > 100 µM (inactive) | > 100 µM (inactive)
O=C1CCCCCCCCCCC1CN(Cc1ccccc1)Cc1ccccc1 (stereo not given) | 30 µM (inactive) | 50.7 µM (inactive) |  | 56.5 | > 100 µM (inactive) |  | > 100 µM (inactive) | 83.9 µM (inactive) | 44.5 µM (inactive) | > 100 µM (inactive) | 32.6 µM (inactive) | 45.2 µM (inactive) |  | 54 µM (inactive) | > 100 µM (inactive) | 34.9 µM (inactive) | 19.1 µM (inactive) | 22.9 µM (inactive) | 22.2 µM (inactive)
CC(=O)Nc1ccc(S(=O)(=O)Nc2nc(-c3ccc(Cl)cc3)cc(N3N=C(c4ccc(Br)cc4)CC3c3ccccc3)n2)cc1 (stereo not given) | 24.5 µM (inactive) | 17.8 µM (inactive) |  | 15.7 | 16.3 µM (inactive) | 15 µM (inactive) | 11.8 µM (inactive) | 10.7 µM (inactive) | 2.06 µM (inactive) | 14.3 µM (inactive) | 16.6 µM (inactive) | 16.9 µM (inactive) | 14.7 µM (inactive) | 15.8 µM (inactive) | 16 µM (inactive) | 16 µM (inactive) |  | 15.9 µM (inactive) | 12.1 µM (inactive)
Cc1cc(-n2nnc(C(=O)O)c2-c2ccccc2)c2ccc(Cl)cc2n1 | > 100 µM (inactive) | > 100 µM (inactive) | > 100 µM (inactive) | > 100 |  | > 100 µM (inactive) | > 100 µM (inactive) | > 100 µM (inactive) | > 100 µM (inactive) | > 100 µM (inactive) | > 100 µM (inactive) | > 100 µM (inactive) | > 100 µM (inactive) | > 100 µM (inactive) | > 100 µM (inactive) | > 100 µM (inactive) | > 100 µM (inactive) | > 100 µM (inactive) | 
CC(C)(C)OC(=O)N1C(=O)C2CCCC21 (stereo not given) | > 100 µM (inactive) | > 100 µM (inactive) |  | > 100 | > 100 µM (inactive) | > 100 µM (inactive) | > 100 µM (inactive) | > 100 µM (inactive) | > 100 µM (inactive) | > 100 µM (inactive) |  |  | > 100 µM (inactive) | > 100 µM (inactive) | > 100 µM (inactive) | > 100 µM (inactive) | > 100 µM (inactive) | > 100 µM (inactive) | > 100 µM (inactive)
COc1cc(Oc2nc3cc(F)c(F)cc3nc2-c2ccccc2)cc(OC)c1OC | 43.5 µM (inactive) | > 100 µM (inactive) | 46 µM (inactive) | 51.9 | 82 µM (inactive) | 89.3 µM (inactive) | > 100 µM (inactive) | 35 µM (inactive) | > 100 µM (inactive) | > 100 µM (inactive) | 46.3 µM (inactive) | 26.8 µM (inactive) | > 100 µM (inactive) | > 100 µM (inactive) | > 100 µM (inactive) | 34.2 µM (inactive) | > 100 µM (inactive) | 81.8 µM (inactive) | 
CCCCCCCCOc1ccc(/C=C/C2=[N+](CCO)CCO2)cc1 | 3.69 µM (inactive) | 3.44 µM (inactive) | 7.05 µM (inactive) | 12.1 | 8.63 µM (inactive) | 2.4 µM (inactive) | 3.83 µM (inactive) | 3.27 µM (inactive) | 3.15 µM (inactive) | 9.42 µM (inactive) | 3.96 µM (inactive) | 3.12 µM (inactive) | 2.3 µM (inactive) | 2.54 µM (inactive) | 3.18 µM (inactive) | 3.83 µM (inactive) | 3.35 µM (inactive) |  | 2.2 µM (inactive)
N=c1sc(N2CCOCC2)nn1CC(=O)c1ccccc1 | > 100 µM (inactive) | > 100 µM (inactive) | > 100 µM (inactive) | > 100 | > 100 µM (inactive) | > 100 µM (inactive) | > 100 µM (inactive) | > 100 µM (inactive) | 66.5 µM (inactive) | > 100 µM (inactive) | > 100 µM (inactive) |  | > 100 µM (inactive) | > 100 µM (inactive) | > 100 µM (inactive) | > 100 µM (inactive) | 76.4 µM (inactive) |  | > 100 µM (inactive)
COc1ccc(/C=C2\CN(C)Cc3c2nc(O)c(C#N)c3-c2ccc(OC)cc2)cc1 | > 100 µM (inactive) | > 100 µM (inactive) | > 100 µM (inactive) | 64.9 | 51.2 µM (inactive) | 38.5 µM (inactive) | 50 µM (inactive) | 32.6 µM (inactive) | 54.1 µM (inactive) | > 100 µM (inactive) | 38.3 µM (inactive) |  | 94 µM (inactive) | 38.1 µM (inactive) | 42.5 µM (inactive) | 34.5 µM (inactive) | 80.4 µM (inactive) | 92.7 µM (inactive) | 21.7 µM (inactive)
CN(C(=O)C(Cc1ccccc1)NC(=O)OC(C)(C)C)C1(C(=O)NC(Cc2ccccc2)C(=O)OCc2ccccc2)CCCC1 (stereo not drawn) (Boc-Phe-[NMeAc5c]-Phe-OBn; configuration not given here) | 24.9 µM (inactive) | > 100 µM (inactive) |  | 28.7 | 38.5 µM (inactive) | 22.3 µM (inactive) | 53.6 µM (inactive) | 36.6 µM (inactive) | 31.8 µM (inactive) | > 100 µM (inactive) | 42.6 µM (inactive) | 74.3 µM (inactive) | 44.3 µM (inactive) | 0.653 µM (active) | 46.5 µM (inactive) | 53.5 µM (inactive) | 75.5 µM (inactive) | 45.1 µM (inactive) | 22.5 µM (inactive)
